PubChem BioAssay (NCI)
Where “and” joins values, the source holds several entries; their conditions need not be identical. Equal entries are not always repeated.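 Method: 48-hour compound exposure of cells in 96-well plates, five concentrations, linear interpolation of endpoints. Abbreviation: GI50, concentration required for 50% inhibition of growth. TGI: total growth inhibition.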

Assays:
Experiment in all cases: NCI tumour cell line growth inhibition, 48 h
SF-268 CNS = test system: SF-268 CNS
HL-60(TB) leukemia = test system: HL-60(TB) leukemia
UACC-257 melanoma = test system: UACC-257 melanoma
SNB-19 CNS = test system: SNB-19 CNS
SNB-75 CNS = test system: SNB-75 CNS
HCT-116 colon = test system: HCT-116 colon
SR leukemia = test system: SR leukemia
786-0 renal = test system: 786-0 renal
RPMI-8226 leukemia = test system: RPMI-8226 leukemia
CAKI-1 renal = test system: CAKI-1 renal

Compound | TGI (SF-268 CNS) | TGI (HL-60(TB) leukemia) | TGI (UACC-257 melanoma) | TGI (SNB-19 CNS) | TGI (SNB-75 CNS) | TGI (HCT-116 colon) | TGI (SR leukemia) | TGI (786-0 renal) | TGI (RPMI-8226 leukemia) | TGI (CAKI-1 renal) | GI50 (UACC-257 melanoma) | GI50 (SNB-75 CNS) | GI50 (CAKI-1 renal) | GI50 (SF-268 CNS) | GI50 (HL-60(TB) leukemia) | GI50 (SNB-19 CNS) | GI50 (HCT-116 colon) | GI50 (SR leukemia) | GI50 (RPMI-8226 leukemia)
CCOC(=O)CNC(=O)c1[nH]cnc1/N=N/N(C)C | > 100 µM | > 100 µM | > 100 µM | > 100 µM | > 100 µM | > 100 µM | > 100 µM | > 100 µM | > 100 µM | > 100 µM |  |  |  |  |  |  |  |  | 
CC(=O)O[C@H]1CC[C@@H](OC(C)=O)[C@H]2[C@H](O)[C@H](O)[C@@H]1n1c(=O)n(-c3ccccc3)c(=O)n12 | > 100 µM | > 100 µM | > 100 µM | > 100 µM |  | > 100 µM |  | > 100 µM | > 100 µM | > 100 µM |  |  |  |  |  |  |  |  | 
Cc1ccc(S(=O)(=O)OCCN(CCOS(=O)(=O)c2ccc(C)cc2)c2ccc(C=O)cc2)cc1 | > 100 µM | > 100 µM | 61 µM | > 100 µM |  | > 100 µM |  |  | > 100 µM | 48.8 µM |  |  |  |  |  |  |  |  | 
NCCCNc1nc2ccccc2c2c(=O)c3cc(Cl)ccc3sc12 |  |  | 3.74 µM |  | 2.79 µM |  |  |  |  | 2.86 µM | 2 µM | 1.4 µM | 1.49 µM |  |  |  |  |  | 
CCCCCCCCCCCCOCC(COP(=O)(O)OCCN=[N+]=[N-])OC(=O)CCCCCCCCCCC (centres undefined) | > 100 µM |  |  | > 100 µM |  | > 100 µM |  | > 100 µM | > 100 µM | > 100 µM |  |  |  |  |  |  |  |  | 
NC(=O)CSc1nc2ccccc2c(=O)n1N | > 100 µM |  | > 100 µM | > 100 µM | > 100 µM | > 100 µM | > 100 µM | > 100 µM | > 100 µM | > 100 µM |  |  |  |  |  |  |  |  | 
CC(C)CNP(=O)(NCC(C)C)Oc1ccc(CC(NC(=O)OCc2ccccc2)C(=O)OCc2ccccc2)cc1 (centres undefined) | 33 µM |  | 59.1 µM | 57.8 µM | 39.1 µM | 37.6 µM | 29.2 µM | 28.9 µM | 40 µM | > 100 µM |  |  |  |  |  |  |  |  | 
CCOC(=O)N1CCNCCN(C(=O)OCC)CCNCC1 | > 100 µM | > 100 µM | > 100 µM | > 100 µM |  | > 100 µM | > 100 µM | > 100 µM | > 100 µM | > 100 µM |  |  |  |  |  |  |  |  | 
CC(C)(C)C(=O)c1c(O)c2ccccc2c2ccccc2c1=O | > 100 µM | > 100 µM | > 100 µM | > 100 µM | > 100 µM | > 100 µM |  | > 100 µM |  | > 100 µM |  |  |  |  |  |  |  |  | 
COc1ccc(/C(C=O)=C(\Cl)c2ccc(OC)c(OC)c2)cc1 | > 100 µM | > 100 µM | > 100 µM | > 100 µM | 60.7 µM | > 100 µM | 31.7 µM |  | > 100 µM | > 100 µM |  |  |  |  |  |  |  |  | 
O=C1Nc2noc(=O)nc2NO1 | > 200 µM | > 200 µM | > 200 µM | > 200 µM | > 200 µM | > 200 µM |  | > 200 µM | > 200 µM | > 200 µM |  |  |  |  |  |  |  |  | 
COc1cc2c(cc1O)NC(=O)[C@@H]1C[C@@H](O)CN1C2=O | > 100 µM |  | > 100 µM | > 100 µM | > 100 µM | > 100 µM | > 100 µM | > 100 µM | > 100 µM | > 100 µM |  |  |  |  |  |  |  |  | 
C=CCOC(C)(C)C1=CCC(C)CC1 (centres undefined) | > 100 µM | > 100 µM | > 100 µM | > 100 µM | > 100 µM | > 100 µM |  | > 100 µM | > 100 µM | > 100 µM |  |  |  |  |  |  |  |  | 
N#Cc1cc(F)cc(Oc2ccc(S(=O)(=O)C(F)F)c3c2CC(F)(F)[C@H]3O)c1 | > 100 µM | 87.2 µM | 79.1 µM | > 100 µM | 67.3 µM | > 100 µM | > 100 µM |  | 96.4 µM | > 100 µM | 24.6 µM | 12.6 µM | 27.7 µM | 35.4 µM | 27.4 µM | 37.2 µM | 25.2 µM | 36 µM | 19.2 µM
CC1=NC(=N)N=C(C)C1N=Nc1ccc2nc(C)[nH]c2c1 (centres undefined) | > 100 µM | > 100 µM | > 100 µM | > 100 µM | > 100 µM | > 100 µM |  | > 100 µM | > 100 µM | > 100 µM |  |  |  |  |  |  |  |  | 
COc1ccccc1N=Nc1c(O)ccc2ccccc12 | > 100 µM |  | > 100 µM | > 74.7 µM and 90.4 µM | 41.8 µM and 39.7 µM | > 100 µM | > 100 µM | 26.7 µM and 40.3 µM | > 100 µM | 38.8 µM and 48.6 µM | 41.5 µM and > 100 µM |  |  |  |  |  |  |  | 30.4 µM and > 100 µM
O=c1c2[nH]cnc2n(-c2ccccc2)c(=S)n1-c1ccccc1 | > 100 µM | > 100 µM | > 100 µM |  | > 100 µM | > 100 µM | > 100 µM | > 100 µM | > 100 µM | > 100 µM |  |  |  |  |  |  |  |  | 
O=c1c2ccc(Cl)cc2oc2c(CSc3ccccc3)cccc12 | > 100 µM |  | > 100 µM | > 86.5 µM | > 74.5 µM | > 100 µM | > 100 µM | > 100 µM | 81.3 µM | > 79.7 µM |  |  |  |  |  |  |  |  | 
NC1CCC2(O)c3ccccc3C2C1 (centres undefined) | > 100 µM | > 100 µM | > 100 µM | > 100 µM | > 100 µM | > 100 µM | > 100 µM | > 100 µM | > 100 µM |  |  |  |  |  |  |  |  |  | 
CC(C)=CC1C(C(=O)OCc2cc3c(cc2Cl)OCO3)C1(C)C (centres undefined) | > 100 µM |  | 48.1 µM | > 100 µM | > 100 µM | > 100 µM | 33.4 µM | > 100 µM |  | > 100 µM |  |  |  |  |  |  |  |  | 
COc1cc(C=O)cc(C=Nc2ccc(Br)cc2)c1O | 27.8 µM | 56.8 µM | 34 µM | > 100 µM | > 100 µM | > 100 µM | 40.8 µM |  | 21.8 µM | 42 µM |  |  |  |  |  |  |  |  | 
CCC12CCC[C@@]13C=C[C@H](O3)C(C)(C)C2=O (some centres undefined) | > 100 µM | > 100 µM | > 100 µM | > 100 µM | > 100 µM | > 100 µM | > 100 µM |  | > 100 µM | > 100 µM |  |  |  |  |  |  |  |  | 
